According to patent US20230146455A1, “TREATMENT OF INFLAMMATORY DISEASES WITH PEPTIDES AND PHARMACEUTICAL COMPOSITIONS” (Yuyu Pharma, Inc., priority 2020, published 2023):
Several values for one entry are separate records, joined by “and”; a condition that tells them apart may be missing. Equal values may be shown once. Where a SMILES comes first, the peptide text is derived from it. [ ]: non-standard residue; d: D form. Hyp = O=C(O)[C@@H]1C[C@@H](O)CN1

Test system: human PBMCs
Test: PBMC cell counts (total, live, viability; trypan blue, Countess) with and without LPS and test articles (Example 9)
Type: cell-based
Description: Treatment Human PBMCs were pretreated with YY-101, YDE-011 and YDE-043 or reference compound; Xiidra® at various concentration (ranging from 1 nM to 100 uM) for 2 h before stimulation. An equal volume of 0.5% DMSO was used as a vehicle control. Then, the cells were treated with LPS at 5 ug/ml. The supernatants from treated cells were harvested at 24 h and placed in a 96 well for Luminex cytokine & chemokine profiling using a Luminex 200 multiplex assay (Luminex; R&D system, USA).
The main study arm with triplicate wells per group in a 24-well plate: • 1. Blank • 2. PBMC: 0.5% DMSO • 3. PBMC+LPS (5 ug/ml) • 4. PBMC+YY-101 100 uM • 5. PBMC+YY-101 10 uM • 6. PBMC+YY-101 1 uM • 7. PBMC+YY-101 0.1 uM • 8. PBMC+YY-101 0.01 uM • 9. PBMC+LPS (5 ug/ml)+Xiidra®100 uM • 10. PBMC+LPS (5 ug/ml)+Xiidra® 10 uM • 11. PBMC+LPS (5 ug/ml)+Xiidra® 1 uM • 12. PBMC+LPS (5 ug/ml)+Xiidra®0.1 uM • 13. PBMC+LPS (5 ug/ml)+Xiidra®0.01 uM • 14. PBMC+LPS (5 ug/ml)+Xiidra®0.001 uM • 15. PBMC+LPS (5 ug/ml)+YY-101 100 uM • 16. PBMC+LPS (5 ug/ml)+YY-101 10 uM • 17. PBMC+LPS (5 ug/ml)+YY-101 1 uM • 18. PBMC+LPS (5 ug/ml)+YY-101 0.1 uM • 19. PBMC+LPS (5 ug/ml)+YY-101 0.01 uM • 20. PBMC+LPS (5 ug/ml)+YY-101 0.001 uM • 21. PBMC+LPS (5 ug/ml)+YDE-011 100 uM • 22. PBMC+LPS (5 ug/ml)+YDE-011 10 uM • 23. PBMC+LPS (5 ug/ml)+YDE-011 1 uM • 24. PBMC+LPS (5 ug/ml)+YDE-011 0.1 uM • 25. PBMC+LPS (5 ug/ml)+YDE-011 0.01 uM • 26. PBMC+LPS (5 ug/ml)+YDE-011 0.001 uM • 27. PBMC+LPS (5 ug/ml)+YDE-043 100 uM • 28. PBMC+LPS (5 ug/ml)+YDE-043 10 uM • 29. PBMC+LPS (5 ug/ml)+YDE-043 1 uM • 30. PBMC+LPS (5 ug/ml)+YDE-043 0.1 uM • 31. PBMC+LPS (5 ug/ml)+YDE-043 0.01 uM • 32. PBMC+LPS (5 ug/ml)+YDE-043 0.001 uM
The number of PBMCs was measured after 24 hr of treatment. The culture both and trypan blue were diluted 1:1 and 10 ul was added to Countess cell counting chamber (Thermo fisher, USA). The number of PBMCs was measured using a Countess automated cell counter (Thermo fisher, USA).

[1] = PBMC + LPS(5 ug/ml) + test article 100 uM, Mean
[2] = PBMC + LPS(5 ug/ml) + test article 100 uM, single replicates
[3] = PBMC + LPS(5 ug/ml), test article 0.001 uM, Mean
[4] = PBMC + LPS(5 ug/ml), test article 0.001 uM, single replicates
[5] = PBMC + LPS(5 ug/ml), test article 0.01 uM, Mean
[6] = PBMC + LPS(5 ug/ml), test article 0.01 uM, single replicates
[7] = PBMC + LPS(5 ug/ml), test article 0.1 uM, Mean
[8] = PBMC + LPS(5 ug/ml), test article 0.1 uM, single replicates
[9] = PBMC + LPS(5 ug/ml), test article 1 uM, Mean
[10] = PBMC + LPS(5 ug/ml), test article 1 uM, single replicates
[11] = PBMC + LPS(5 ug/ml), test article 10 uM, Mean
[12] = PBMC + LPS(5 ug/ml), test article 10 uM, single replicates
[13] = PBMC + LPS(5 ug/ml), test article 100 uM, Mean
[14] = PBMC + LPS(5 ug/ml), test article 100 uM, single replicates

CC(C)C[C@H](NC(=O)CNC(=O)[C@H](CC(C)C)NC(=O)[C@H](CCC(N)=O)NC(=O)CNC(=O)[C@@H]1C[C@@H](O)CN1)C(=O)N[C@@H](C)C(=O)NCC(=O)N1CCC[C@H]1C(=O)N[C@@H](CCCCN)C(=O)O [YDE-011] (H-[Hyp]GQLGLAGPK-OH)
Live cell (PBMC + LPS(5 ug/ml) + test article 10 uM, single replicates (1st, 2nd, 3rd)): 5.4 10^5/ml and 5.8 10^5/ml and 4.7 10^5/ml
Live cell [1]: 6.1 10^5/ml
Live cell (10^5/ml) [1]: 6.1 10^5/ml
Live cell, Mean [1]: 6.1 10^5/ml
Live cell (PBMC + LPS(5 ug/ml) + test article 100 uM, individual replicates): 6.1 10^5/ml (2×) and 6.0 10^5/ml
Live cell (PBMC + LPS(5 ug/ml) + test article 100 uM, individual replicates (1st, 2nd, 3rd)): 6.1 10^5/ml (2×) and 6.0 10^5/ml
Live cell [2]: 6.1 10^5/ml (2×) and 6.0 10^5/ml
Live cell (10^5/ml) [2]: 6.1 10^5/ml (2×) and 6.0 10^5/ml
Live cell (PBMC + LPS(5 ug/ml) + test article 100 uM, single replicates (1st, 2nd, 3rd)): 6.1 10^5/ml (2×) and 6.0 10^5/ml
Live cell (PBMC + LPS(5 ug/ml), 0.001 uM, Mean): 5.4 10^5/ml
Live cell (PBMC + LPS(5 ug/ml), 0.001 uM, single replicates): 4.5 10^5/ml and 5.8 10^5/ml (2×)
Live cell (PBMC + LPS(5 ug/ml), 0.01 uM, Mean): 5.9 10^5/ml
Live cell (PBMC + LPS(5 ug/ml), 0.01 uM, single replicates): 6.2 10^5/ml and 5.1 10^5/ml and 6.3 10^5/ml
Live cell (PBMC + LPS(5 ug/ml), 0.1 uM, Mean): 5.8 10^5/ml
Live cell (PBMC + LPS(5 ug/ml), 0.1 uM, single replicates): 6.6 10^5/ml and 5.0 10^5/ml and 5.7 10^5/ml
Live cell (PBMC + LPS(5 ug/ml), 1 uM, Mean): 5.0 10^5/ml
Live cell (PBMC + LPS(5 ug/ml), 1 uM, single replicates): 5.5 10^5/ml and 4.8 10^5/ml (2×)
Live cell (PBMC + LPS(5 ug/ml), 10 uM, Mean): 5.3 10^5/ml
Live cell (PBMC + LPS(5 ug/ml), 10 uM, single replicates): 5.4 10^5/ml and 5.8 10^5/ml and 4.7 10^5/ml
Live cell (PBMC + LPS(5 ug/ml), 100 uM, Mean): 6.1 10^5/ml
Live cell (PBMC + LPS(5 ug/ml), 100 uM, single replicates): 6.1 10^5/ml (2×) and 6.0 10^5/ml
Live cell [3]: 5.4 10^5/ml
Total cell count [3]: 6.3 10^5/ml
Live cell [4]: 4.5 10^5/ml and 5.8 10^5/ml (2×)
Total cell count [4]: 5.9 10^5/ml and 6.3 10^5/ml and 6.6 10^5/ml
Viability [4]: 75.0% and 92.0% and 88.0%
Live cell [5]: 5.9 10^5/ml
Total cell count [5]: 7.3 10^5/ml
Live cell [6]: 6.3 10^5/ml and 6.2 10^5/ml and 5.1 10^5/ml
Total cell count [6]: 7.6 10^5/ml and 7.8 10^5/ml and 6.4 10^5/ml
Viability [6]: 79.0%
Live cell [7]: 5.8 10^5/ml
Total cell count [7]: 7.1 10^5/ml
Live cell [8]: 6.6 10^5/ml and 5.0 10^5/ml and 5.7 10^5/ml
Total cell count [8]: 7.8 10^5/ml and 5.7 10^5/ml and 7.7 10^5/ml
Viability [8]: 85.0% and 87.0% and 74.0%
Live cell [9]: 5.0 10^5/ml
Total cell count [9]: 6.4 10^5/ml
Live cell [10]: 5.5 10^5/ml and 4.8 10^5/ml
Total cell count [10]: 6.2 10^5/ml and 7.0 10^5/ml and 5.9 10^5/ml
Viability [10]: 89.0% and 69.0% and 81.0%
Live cell [11]: 5.3 10^5/ml
Total cell count [11]: 6.0 10^5/ml
Live cell [12]: 5.4 10^5/ml and 5.8 10^5/ml and 4.7 10^5/ml
Total cell count [12]: 5.9 10^5/ml and 6.7 10^5/ml and 5.4 10^5/ml
Viability [12]: 91.0% and 86.0% and 88.0%
Live cell [13]: 6.1 10^5/ml
Total cell count [13]: 8.2 10^5/ml
Live cell [14]: 6.1 10^5/ml (2×) and 6.0 10^5/ml
Total cell count [14]: 7.6 10^5/ml and 8.1 10^5/ml and 9.0 10^5/ml
Viability [14]: 81.0% and 75.0% and 67.0%
which treatments consistently affected the total and live number of PBMCs or the percent viability (in words) (up to 100 μM, 24-hour treatment): none of
